Assay results taken from patent publication US10722520B2, “Heterocyclic compounds and their use in preventing or treating bacterial infections” (MUTABILIS, priority 2016, dated 2020).

How the values were obtained:
E. cloacae P99 [1] = assay: MIC of compound alone, broth microdilution; assay type: cell-based; settings: strain P99; compound alone
Method in brief: (§1)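 Log-phase bacteria were diluted to a final 5×10^5 cfu/mL in cation-adjusted Mueller-Hinton broth and incubated 16-20 h at 35° C in ambient air. MIC was taken as the lowest concentration preventing growth, judged visually.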

E. coli 190317 [2] = assay: MIC of compound alone, broth microdilution; assay type: cell-based; settings: strain 190317; compound alone
Method in brief: as §1

K. pneumoniae 6299 [3] = assay: MIC of compound alone, broth microdilution; assay type: cell-based; settings: strain 6299; compound alone
Method in brief: as §1

K. pneumoniae BAA-1898 [4] = assay: MIC of compound alone, broth microdilution; assay type: cell-based; settings: strain BAA-1898; compound alone
Method in brief: as §1

P. aeruginosa CIP107051 [5] = assay: MIC of compound alone, broth microdilution; assay type: cell-based; settings: strain CIP107051; compound alone
Method in brief: as §1

E. cloacae P99 [6] = assay: MIC of ceftazidime (CAZ) at fixed concentration of compound (synergy), broth microdilution; assay type: cell-based; settings: strain P99; MIC of CAZ, compound fixed at 4 μg/mL
Description: (§2) Log phase bacterial suspensions were adjusted to a final density of 5×10^5 cfu/mL in cation-adjusted Mueller-Hinton broth (Becton-Dickinson) and added to each well (98 μL). Microplates were incubated for 16-20 h at 35° C. in ambient air. The MIC of the compounds was defined as the lowest concentration of said compounds that prevented bacterial growth as read by visual inspection.

E. coli 190317 [7] = assay: as above; assay type: cell-based; settings: strain 190317; MIC of CAZ, compound fixed at 4 μg/mL
Description: as §2

K. pneumoniae 6299 [8] = assay: as above; assay type: cell-based; settings: strain 6299; MIC of CAZ, compound fixed at 4 μg/mL
Description: as §2

K. pneumoniae BAA-1898 [9] = assay: as above; assay type: cell-based; settings: strain BAA-1898; MIC of CAZ, compound fixed at 4 μg/mL
Description: as §2

P. aeruginosa CIP107051 [10] = assay: as above; assay type: cell-based; settings: strain CIP107051; MIC of CAZ, compound fixed at 4 μg/mL
Description: as §2

AmpC (P99) = AmpC (P99) (Enterobacter cloacae, UniProt P05364); settings: read-out: IC50 β-lactamase AmpC (P99); class (C); nitrocefin 200 μM, 30-min pre-incubation, enzyme 0.2 nM
CMY-37 = CMY-37 (Citrobacter freundii, UniProt P05193); settings: read-out: IC50 β-lactamase CMY-37; class (C); nitrocefin 200 μM, 30-min pre-incubation, enzyme 0.2 nM
AmpC (PAE) = AmpC (PAE) (Pseudomonas aeruginosa, UniProt P24735); settings: read-out: IC50 β-lactamase AmpC (PAE); class (C); nitrocefin 200 μM, 30-min pre-incubation, enzyme 0.4 nM
OXA-15 = OXA-15 (Pseudomonas aeruginosa, UniProt Q51574); settings: read-out: IC50 β-lactamase OXA-15; class (D); nitrocefin 200 μM, 30-min pre-incubation, enzyme 0.4 nM
TEM-1 = TEM-1 (Escherichia coli, UniProt P62593); settings: read-out: IC50 β-lactamase TEM-1; class (A); nitrocefin 200 μM, 30-min pre-incubation, enzyme 0.1 nM
SHV-1 = SHV-1 (Klebsiella pneumoniae, UniProt P0AD64); settings: read-out: IC50 β-lactamase SHV-1; class (A); nitrocefin 200 μM, 30-min pre-incubation, enzyme 0.075 nM
CTX-M-15 = CTX-M-15 (Escherichia coli, UniProt Q9EXV5); settings: read-out: IC50 β-lactamase CTX-M-15; class (A); nitrocefin 200 μM, 30-min pre-incubation, enzyme 0.4 nM
KPC-2 = KPC-2 (Klebsiella pneumoniae, UniProt Q9F663); settings: read-out: IC50 β-lactamase KPC-2; class (A); nitrocefin 200 μM, 30-min pre-incubation, enzyme 1 nM
OXA-1 = OXA-1 (Escherichia coli, UniProt P13661); settings: read-out: IC50 β-lactamase OXA-1; class (D); nitrocefin 200 μM, 30-min pre-incubation, enzyme 0.2 nM
OXA-11 = OXA-11 (Pseudomonas aeruginosa, UniProt Q06778); settings: read-out: IC50 β-lactamase OXA-11; class (D); nitrocefin 200 μM, 30-min pre-incubation, enzyme 1.2 nM
OXA-48 = OXA-48 (Klebsiella pneumoniae, UniProt Q6XEC0); settings: read-out: IC50 β-lactamase OXA-48; class (D); nitrocefin 200 μM, 30-min pre-incubation, enzyme 0.3 nM

Molecule	MIC compounds of the invention alone (E. cloacae P99 [1])	MIC compounds of the invention alone (E. coli 190317 [2])	MIC compounds of the invention alone (K. pneumoniae 6299 [3])	MIC compounds of the invention alone (K. pneumoniae BAA-1898 [4])	MIC compounds of the invention alone (P. aeruginosa CIP107051 [5])	MIC combination of CAZ and compounds of the invention at 4 μg/mL (E. cloacae P99 [6])	MIC combination of CAZ and compounds of the invention at 4 μg/mL (E. coli 190317 [7])	MIC combination of CAZ and compounds of the invention at 4 μg/mL (K. pneumoniae 6299 [8])	MIC combination of CAZ and compounds of the invention at 4 μg/mL (K. pneumoniae BAA-1898 [9])	MIC combination of CAZ and compounds of the invention at 4 μg/mL (P. aeruginosa CIP107051 [10])	IC50 (AmpC (P99))	IC50 (CMY-37)	IC50 (OXA-15)	IC50 (TEM-1)	IC50 (SHV-1)	IC50 (CTX-M-15)	IC50 (KPC-2)	IC50 (OXA-1)	IC50 (OXA-11)	IC50 (OXA-48)	other results
NCc1ccn(C2=CC3CN(C2)C(=O)N3OS(=O)(=O)[O-])n1.O=C(O)C(F)(F)F.[Na+] (stereo not drawn) [Example 49, sodium and 2,2,2-trifluoroacetate [3-[3-(ammoniummethyl)pyrazol-1-yl]-7-oxo-1,6-diazabicyclo[3.2.1]oct-3-en-6-yl]sulfate]	16 µg/mL	2 µg/mL	>32 µg/mL	>32 µg/mL	>32 µg/mL	≤0.25 µg/mL	<0.25 µg/mL	≤0.25 µg/mL	≤0.25 µg/mL	4 µg/mL	160 nM	150 nM	510 nM	1.2 nM	8.5 nM	2.6 nM	180 nM	670 nM	380 nM	46 nM	IC50 (AmpC (PAE)): 1300 nM
Cc1cc(C(N)=O)nn1C1=CC2CN(C1)C(=O)N2OS(=O)(=O)[O-].[Na+] (stereo not drawn) [Example 23, sodium (7-oxo-3-(3-carboxamide-5-methyl-pyrazol-1-yl)-1,6-diazabicyclo[3.2.1]oct-3-en-6-yl) sulfate]	>32 µg/mL	>32 µg/mL	>32 µg/mL	>32 µg/mL	>32 µg/mL	8 µg/mL	0.5 µg/mL	4 µg/mL	4 µg/mL	16 µg/mL	38 nM	54 nM	760 nM	0.19 nM	0.36 nM	1 nM	5.7 nM	1500 nM	1100 nM	110 nM	IC50 (AmpC (PAE)): 220 nM
O=C1N2CC(n3ccc(-c4ncco4)n3)=CC(C2)N1OS(=O)(=O)[O-].[Na+] (stereo not drawn) [Example 78]	>32 µg/mL	>32 µg/mL	>32 µg/mL	>32 µg/mL	>32 µg/mL	8 µg/mL	0.5 µg/mL	2 µg/mL	16 µg/mL	8 µg/mL	14 nM	29 nM	24 nM	0.37 nM	1.5 nM	0.46 nM	2.7 nM	64 nM	6.5 nM	3 nM	IC50 (AmpC (PAE)): 250 nM
sodium [3-[3-[2-[tert-butyl(dimethyl)silyl]oxyethyl]pyrazol-1-yl]-7-oxo-1,6-diazabicyclo[3.2.1]oct-3-en-6-yl]sulfate [Example 69]	32 µg/mL	4 µg/mL	32 µg/mL	32 µg/mL	>32 µg/mL	1 µg/mL	≤0.25 µg/mL	1 µg/mL	64 µg/mL	8 µg/mL			230 nM	0.61 nM	2.3 nM	0.95 nM	32 nM	310 nM	120 nM	14 nM	
sodium (7-oxo-3-(3-(methoxycarbamoyl)-pyrazol-1-yl)-1,6-diazabicyclo[3.2.1]oct-3-en-6-yl) sulfate and sodium (7-oxo-3-(5-(methoxycarbamoyl)-pyrazol-1-yl)-1,6-diazabicyclo[3.2.1]oct-3-en-6-yl) sulfate [Example 27]	16 µg/mL	8 µg/mL	32 µg/mL	32 µg/mL	>32 µg/mL	2 µg/mL	0.25 µg/mL	0.5 µg/mL	16 µg/mL	16 µg/mL			110 nM	1.1 nM	4.8 nM	1.2 nM	10 nM	130 nM	69 nM	6.1 nM	
